Reference: patent publication US7354904B2, “Bacteriocin inducer peptides” (priority 2005, dated 2008)

Legend:
[1] = Isoelectric point by isoelectrofocusing; type: physicochemical
From the text: (§1) FIGS. 1A and 1B are photographs showing the direct detection of signal peptide and bacteriocin OR-7 after SDS-PAGE (A) and isoelectrofocusing (B). […] In FIG. 1A Lane 1-Molecular Mass Markers LMW Range 2,100-12,500 (Amersham Pharmacia Biotech): 2,100; 5,780; 8,400; 12,500 Da. […] Lane 3 contained pI standards (Protein Test Mixture, I Marker Proteins, Serva): 10.0, 9.2, 8.1, 6.9, 5.5, 4.3.
(§2) FIGS. 2A and 2B are photographs showing direct detection of signal peptide and bacteriocin 50-52 after SDS-PAGE (A) and isoelectrofocusing (B). […] Lane 3 contained pI standards (Protein Test Mixture, I Marker Proteins, Serva): 10.0, 8.1, 7.9, 6.4, 5.5, 4.3, 4.1, and 3.8.
(§3) FIGS. 3A and 3B are photographs showing the direct detection of signal peptide and bacteriocin 760 after SDS-PAGE(A) and isoelectrofocusing (B). […] Lane 3 contained pI standards (Protein Test Mixture, I Marker Proteins, Serva): 10.0, 8.1, 7.9, 6.4, 5.5, 4.3, 4.1, and 3.8.
At the end of 14 hours the supernatant from the cultures was placed into 500 ml centrifuge flasks with about one milliliter of regenerated Sepharose SP Fast Flow (v/v 500: 1). This was incubated for approximately 1 hour at room temperature with stirring. The suspension was then washed with about 100 ml of a 0.2 M TRIS-HCl buffer pH approximately 6.4. The bacteriocins were eluted by centrifugation with about 100 ml of approximately 0.2 M K2HPO4, pH of about 5.8 at about 7,000×g for approximately 10 minutes. Antagonistic activity of the bacteriocin fractions against C. jejuni and S. enteritidis was assessed using a Spot Test as described above. The level of purity of the bacteriocin fractions was determined by SDS-PAGE. The isoelectric points of the fractions were determined by isoelectric focusing. Concentrations of protein for all bacteriocin fractions were determined at 215 nm using a spectrophotometer.

Campylobacter jejuni = assay: Direct detection of antimicrobial activity: SDS-PAGE / isoelectrofocusing gel overlaid with Campylobacter jejuni; type: cell-based
From the text: as §1, §2, §3

[2] = system: Lactobacillus salivarius PVD-32; assay: Bacteriocin OR-7 production with signal peptide under scaled up conditions (bioreactor); type: cell-based; settings: V-61 reactor, 10% Brucella Broth, PVD-32, LWP252, peptide 0.2 mg, pH 6.9, 37° C., 14 hours
C. jejuni = assay: Spot Test, antagonistic activity of isolated signal peptides; type: cell-based, Campylobacter jejuni; settings: isolated signal peptide
Method: (§4) The antagonistic activity of the bacteriocins produced when using the signal peptide and an inducer strain of bacteria against C. jejuni and S. enteritidis was assessed using a Spot Test. The steps included taking various concentrations of pure preparation (μg/ml) of the bacteriocin in approximately 10 microliters of volume plated onto blood-supplemented Campylobacter agar or Nutrient agar (MPA or Meta Peptone Agar) previously seeded with cells of target bacteria. Plates containing cultures of C. jejuni were grown at about 42° C., under microaerobic conditions. Plates containing S. enteritidis were grown at about 37° C. under aerobic conditions. Activity of the bacteriocin was expressed in arbitrary units (AU) per one milliliter of the preparation at which a visible zone of inhibition of the growth of culture appears (Henderson et al., Archives of Biochemistry and Biophysics, Volume 295, 5-12, 1992; herein incorporated by reference). Specific activity can also expressed as arbitrary units per milligram of pure bacteriocin.
(§5) Its activity was about 200 AU/ml and its molecular weight was about 2.5 kDa, as determined by SDS-PAGE electrophoresis. The isoelectric point (pI) was about 7.9 (FIGS. 1A and 1B).
(§6) Its molecular weight was about 3.1 kDa as measured by SDS-PAGE and the isoelectric point (pI) was about 8.1 (FIGS. 2A and 2B).
(§7) Its molecular weight was about 2.1 kDa as determined by SDS-PAGE electrophoresis and its isoelectric point was about 8.9 (FIGS. 3A and 3B).

S. enteritidis = assay: as above; type: cell-based; settings: isolated signal peptide
Method: as §4, §5, §6, §7

[3] = system: Enterococcus faecium LWP 50-52; assay: Influence of signal peptide on bacteriocin 50-52 production, flask culture (fraction protein at 215 nm, activity by spot-test against C. jejuni and S. enteritidis); type: cell-based
[4] = system: Lactobacillus salivarius PVD-32; assay: Influence of signal peptide on bacteriocin OR-7 production, flask culture (fraction protein at 215 nm, activity by Spot Test against C. jejuni and S. enteritidis); type: cell-based; settings: for Activity / Protein Concentration / Protein increase vs. Control / Specific Activity / mg protein/liter: 10% B-B
[5] = system: Streptococcus cricetus LWP 760; assay: Influence of signal peptide on bacteriocin 760 production, flask culture (fraction protein at 215 nm, activity by Spot Test against C. jejuni and S. enteritidis); type: cell-based
[6] = LWP 50-52 + LWP 320, PVD-32 peptide 0.1 mg/ml
[7] = producer PVD32, no inducer, peptide 0.1 mg
[8] = producer PVD-32 + inducer LWP-252, peptide 0.001 mg
[9] = producer PVD-32 + inducer LWP-252, peptide 0.01 mg
[10] = producer PVD-32 + inducer LWP-252, peptide 0.1 mg
[11] = producer PVD-32, no inducer, peptide 0.001 mg
[12] = producer PVD-32, no inducer, peptide 0.01 mg
[13] = LWP 760 + LWP320, 0.1 mg PVD 32 peptide

TTKNYGNGVCNSVNWCQCGNVWASCNLATGCAAWLCKLA (listed as Enterococcus faecium) [bacteriocin 50-52, bacteriocin produced by Enterococcus faecium LWP 50-52]
isoelectric point (pI) [1]: about 8.4 | antimicrobial activity of band (zone of growth inhibition) (Campylobacter jejuni): corresponds to the antimicrobial activity

MVTKSLVLAWVVALLACGMVKGLT (listed as Lactobacillus salivarius) [PVD-32 Signal Peptide, signal peptide isolated from Lactobacillus salivarius PVD-32, stimulates bacteriocin OR-7 production]
Activity [2]: 3,276,800 AU/ml | Amount of Protein produced in One liter [2]: 225 mg | Concentration of Protein [2]: 1.5 mg/mL | Increase in amount of protein vs. control [2]: 3 | Specific Activity [2]: 2,184,533 AU/mg | Activity (C. jejuni): about 200 AU/ml | antagonistic activity (C. jejuni): weak antagonistic activity | Activity (S. enteritidis): about 200 AU/ml | antagonistic activity (S. enteritidis): weak antagonistic activity | isoelectric point (pI) [1]: about 7.9 | Activity [3, 6]: 819,200 AU/ml | Protein Concentration [3, 6]: 0.25 mg/mL | Protein increase vs. Control [3, 6]: 1 | Specific Activity [3, 6]: 3,276,800 AU/mg | mg protein/liter [3, 6]: 82.5 mg protein/liter | yield of bacteriocin 50-52 versus the control ([3]; signal peptide of another strain added to LWP 50-52 + LWP 320): did not increase | Activity [4, 7]: 102,400 AU/ml | Protein Concentration [4, 7]: 0.18 Mg/ml | Protein increase vs. Control [4, 7]: 0.9 | Specific Activity [4, 7]: 568,888 AU/mg | mg protein/liter [4, 7]: 59.4 mg protein/liter | Activity [4, 8]: 409,600 AU/ml | Protein Concentration [4, 8]: 0.22 Mg/ml | Protein increase vs. Control [4, 8]: 1.1 | Specific Activity [4, 8]: 1,861,818 AU/mg | mg protein/liter [4, 8]: 72.6 mg protein/liter | Activity [4, 9]: 1,638,400 AU/ml | Protein Concentration [4, 9]: 0.65 Mg/ml | Protein increase vs. Control [4, 9]: 3.25 | Specific Activity [4, 9]: 2,520,615 AU/mg | mg protein/liter [4, 9]: 214.5 mg protein/liter | mg protein/liter ([4]; producer PVD-32 + inducer LWP-252, peptide 0.01 mg, listed as signal peptide from PVD-32): about 214.5 mg protein/liter | Activity [4, 10]: 409,600 AU/ml | Protein Concentration [4, 10]: 0.22 Mg/ml | Protein increase vs. Control [4, 10]: 1.1 | Specific Activity [4, 10]: 1,861,818 AU/mg | mg protein/liter [4, 10]: 72.6 mg protein/liter | Activity [4, 11]: 204,800 AU/ml | Protein Concentration [4, 11]: 0.2 Mg/ml | Protein increase vs. Control [4, 11]: 1 | Specific Activity [4, 11]: 1,024,000 AU/mg | mg protein/liter [4, 11]: 66 mg protein/liter | Activity [4, 12]: 204,800 AU/ml | Protein Concentration [4, 12]: 0.2 Mg/ml | Protein increase vs. Control [4, 12]: 1 | Specific Activity [4, 12]: 1,024,000 AU/mg | mg protein/liter [4, 12]: 66 mg protein/liter | production of bacteriocin OR-7 per liter of culture fluid ([4]; simultaneous culture of PVD-32 and LWP-252 with signal peptide (flask and bioreactor)): 214-225 milligrams | Activity [5, 13]: 1,638,840 AU/ml | Increase in amount of protein vs. control [5, 13]: 1 | Protein Concentration [5, 13]: 0.30 mg/mL | Protein Produced from 1 liter Culture Fluid [5, 13]: 99 mg | Specific Activity [5, 13]: 5,462,666 Au/mg | yield of bacteriocin 760 versus control ([5]; signal peptide of another strain added to LWP 760 + LWP 320): did not increase

KTYYGTNGVHCTKNSLWGKVRLKNMKYDQNTTYMGRLQDILLGWATGAFGKTH (listed as Lactobacillus salivarius) [bacteriocin OR-7, bacteriocin produced by Lactobacillus salivarius PVD-32]
isoelectric point (pI) [1]: about 8.4 | antimicrobial activity of band (zone of growth inhibition) (Campylobacter jejuni): corresponds to the antimicrobial activity

B1: NRWYCNSAAGGVGGAAVCGLAGYVGEAKENIAGEVRKGWGMAGGFTHNKACKSFPGSGWASG (protein, listed as Streptococcus cricetus)
chain: NRWYCNSAAGGVGGAAVCGLAGYVGEAKENIAGEVRKGWGMAGGFTHNKACKSFPGSGWASG
notes: bacteriocin produced by Streptococcus cricetus LWP 760
isoelectric point (pI) [1]: about 9.5 | antimicrobial activity of band (zone of growth inhibition) (Campylobacter jejuni): corresponds to the antimicrobial activity
